Data on 3 sequences can be found in patent US7247615B2, “Peptide agonists of prostate-specific antigen and uses therefor” (priority 2001, dated 2007).

In assay [1] the target is T1, HLA-A2 (Homo sapiens, UniProt P04439, D140Y/D185E/D98H/E176V/E277Q/G131W/G231S/I119V/I121R/I166T/I218V/L300P/L318F/N151K/N90K/P208A/P217A/Q86G/Q94H/R138H/R169H/T345S).
T1 construct: endogenous in cells; host or cells: T2A2 / 174CEM-T2 (T2) transport deletion mutant cell line
The assay can be described thus: Peptide binding to HLA-A2 on T2A2 cells (flow cytometry). Particulars: peptide 0 to 50 μg/ml, FIG. 1A. The procedure: Single-color flow cytometric analysis. The method for single-color flow cytometric analysis was described previously (F. Guadagni et al., 1990, Cancer Res. 50:6248–6255). Briefly, cells were washed three times with cold Ca^2+ and Mg^2+-free DPBS and then stained for 1 h with mAb against HLA-A2 (A2,69, One Lambda, Inc., Canoga Park, Calif.), using 10 μg of the 1× working dilution per 10^6 cells. Mineral oil plasmacytoma-104E (Cappel/Organon Teknika Corp., West Chester, Pa.) was used as an isotype control. The cells were washed three times and incubated with a 1:100 dilution of fluorescein isothiocyanate (FITC)-labeled goat anti-mouse immunoglobulin (IgG) (Kirkegaard and Perry Laboratories, Gaithersburg, Md.). The cells were immediately analyzed using a Becton Dickinson FACScan equipped with a blue laser with an excitation of […] at 488 nm. Data were gathered from 10,000 live cells, stored and used to generate results.
Peptide Binding to HLA-A2. […] Briefly, 1×10^6 cells in serum-free Iscove's modified Dulbecco's complete medium were incubated with peptides at a concentration of 50 μg/ml in 24 well culture plates at 37° C. in 5% CO2. Flow cytometry for peptide binding was performed using T2 cells and single-color analysis. After cells were washed three times in DPBS, as described above, they were incubated for 1 h with HLA-A2 specific MAb (One Lambda, Inc.) using 10 μg of a 1× working dilution per 10^6 cells. UPC-10 (Cappel/Organon Teknika) was used as isotype control. The cells were washed three times and incubated with 1:100 dilution of FITC-labeled anti-mouse IgG (Becton Dickinson). Analysis was conducted with the FACScan, as described above. Cells were maintained on ice during all cell preparation and staining.
The four analogs were then tested for binding to the HLA-A2 positive T2A2 cells as described in the Examples section. The NCA peptide was previously shown to not bind to HLA-A2, and was used as a negative […] control. Peptides were added to T2A2 cells at concentrations of 0 to 50 μg/ml.
In general terms: In flow cytometry, cells or beads pass a laser one at a time.

The test system of assay [2] is T-PSA-3A cells. The assay can be described thus: IFN-γ production by T cell line stimulated with peptide-pulsed DCs (ELISA). The assay is classed as cell-based, human. Particulars: peptide 25 μg/ml. The procedure:
(§1) Detection of Cytokines. Supernatant of T cells exposed for 24 h to peptide-pulsed infected DC, rV-PSA infected DC, or rV-PSA-3A infected DC, in IL-2-free medium at various responder: stimulator ratios, were screened for secretion of IFN-γ using an ELISA kit (R & D Systems, Minneapolis, Minn.). The results were calculated as pg/ml. A Cytometric Bead Array (CBA) system (BD PharMingen, San Diego, Calif.) was also used to determine the secretion of multiple cytokines by specific T cell lines. The CBA system uses the fluorescence detection by flow cytometry to measure soluble analytes in a particle-based immunoassay. The BD human Th1/Th2 cytokine CBA Kit was employed to measure IL-2, IL-4, IL-5, IL-10, TNF-α, and IFN-γ protein levels in a single sample. The cytokine capture beads were mixed with PE-conjugated detection antibodies and then incubated with recombinant cytokine standards or test samples to form sandwich complexes. The samples results were generated in graphical and tabular format using BD CBA analysis software. The results were calculated as pg/ml.
Table 2: Production of IFN-γ by a T cell line stimulated with PSA-3 or agonist PSA-3A peptides. The PSA-specific T cell line T-PSA-3A was used as effector cells at IVS-3. T-PSA-3A cells were stimulated with irradiated HLA-A2 positive allogeneic DCs either pulsed with PSA-3 or PSA-3A peptide at a concentration of 25 μg/ml and an effector-to-APC ratio of 10:1. After 24-h culture supernatants were collected and screened for the secretion of IFN-γ. APC=antigen […].
In general terms: ELISA stands for enzyme-linked immunosorbent assay.

Assay [3] relates to DCs. The assay can be described thus: IL-12 production by peptide-pulsed DCs in the presence of T cells. It is filed as cell-based, human. As to the method:
It has been previously shown that the activation of T cells by peptidepulsed DCs is related to the level of IL-12 production by the DCs. Studies were therefore conducted to determine the levels of IL-12 production by DCs pulsed with PSA-3 and PSA-3A peptides in the presence of T cells. […] When DCs pulsed with the PSA3A peptide were incubated with both T cell lines, the DCs incubated with the T-PSA-3A line again produced higher levels of IL-12 than those peptide-pulsed DCs incubated with the T cell line T-PSA-3 (Table 3).

Assay [4] deals with T-PSA-3 cells. The assay can be described thus: Cytometric Bead Array cytokine production by peptide-stimulated T cells. It is filed as cell-based, human. Conditions: T-PSA-3 + peptide-pulsed autologous B cells, 24 h supernatant. The procedure:
as §1
The cytokine profile of T cells stimulated with APCs pulsed with either the PSA-3 or the PSA-3A peptide was then analyzed. The T cell line derived using the PSA-3 peptide was used in these studies, and the APCs used were autologous B cells. A Cytometric Bead Array (CBA) assay was used for analysis (see Examples section) using supernatant fluids obtained 24 h after stimulation. FIGS. 6A–6C illustrate […] of the 10 internal standards used for the calibration of the results obtained in this assay. FIGS. 6D–6F show the levels of each of six cytokines produced by T cells stimulated with APCs pulsed with no peptide, PSA-3A peptide, and PSA-3 peptide, respectively. […] The results obtained for IL-5 will be discussed below (Conclusions section).

Assay [5] has as its system CD8+ cells (T-PSA-3). The assay can be described thus: Apoptosis (TUNEL) assay of peptide-stimulated T cells. The assay is classed as cell-based, human. Conditions: T cells stimulated with peptide-pulsed autologous B cells, IVS-5, TUNEL. An excerpt:
FIGS. 5A–5C. DNA fragmentation in peptide stimulated T cells using the TUNEL assay. Apoptosis of CD8^+ cells activated by PSA peptide pulsed autologous B cells. FIG. 5A: T-PSA-3 cells stimulated with B cells with no peptide; FIG. 5B: T-PSA-3 cells stimulated with B cells pulsed with PSA-3 peptide; FIG. 5C: T-PSA-3 cells stimulated with B cells pulsed with PSA-3A peptide. Numbers in each histogram indicate percent of apoptotic cells (cells above line) as described in the Examples section.
Apoptosis Assay. T cells were incubated for 48 h in the presence of peptide-pulsed autologous B cells as described in the IVS procedure, above, and replated to 96-well plates for 24 h. Apoptosis was analyzed using the terminal deoxynucleotidyl transferase-mediated nick-end labeling (TUNEL) assay (Y. Gavrieli et al., 1992, J. Cell Biol. 119:493–501).

Assay [6] has as its system HLA-A2/K^b transgenic mice. The assay can be described thus: Immunization of HLA-A2.1/Kb transgenic mice with peptide-pulsed DCs, IFN-γ production by T cells. The assay is classed as in vivo, mouse. Particulars: 24 h. An excerpt: Transgenic Mice. HLA-A2.1/K^b transgenic mice were kindly provided by Dr. L. Sherman (Scripps Laboratories, San Diego, Calif.). Transgenic mice express the product of the HLA-A2.1/Kb chimeric gene in which the alpha-3 domain of the heavy chain is replaced by mouse H-2/K^b domain, but the HLA-A2.1 alpha-1 and alpha-2 domains are unaltered (A. Vitiello et al., 1991, J. Exp. Med. 173:1007–1015; V. H. Engelhard et al., 1991, J. Immunol. 46:1226–1232).
In Vivo Immunization and Murine T cell Cultures. Three groups of HLA-A2.1/K^b transgenic mice (three mice per group) were immunized s.c. (subcutaneously) in the base of the tail with PSA-3 peptide-pulsed HLA-A2.1/K^b DC, PSA-3A peptide-pulsed DCs from HLA-A2.1/K^b transgenic mice, or DCs only. Peptides were used at a concentration of 50 μg/ml and DCs were used at 1×10^6 cell/mouse/injection. A total of three injections were given to each animal, 2 weeks apart. Mice injected with DCs only were used as controls. Mice were sacrificed 7 days after the last injection, and spleen cells were restimulated in vitro with 25 μg/ml of PSA-3 or PSA3A peptide with irradiated syngeneic spleen cell for 6 days. The cytokine production of these bulk cultures was tested. Peptide-pulsed Jurkat A2 (JA2 K^b) cells were used as stimulator cells. Jurkat 0201 K^b cells are stable transfectants of the human T cell leukemia line, Jurkat, which express the product of HLA-A0201K^b climeric gene (L. A. Sherman et al., 1992, Science 258:815–818).
The HLA-A2/K^b transgenic mouse has been previously reported to aid in the determination of the immunogenicity of HLA-A2 peptides for humans. This in vivo system was thus employed to further analyze and compare the immunogenicity of the PSA-3A peptide with that of the native PSA-3 peptide. DCs from the HLA-A2/K^b transgenic mice were pulsed with either the PSA-3 or the PSA-3A peptide and used to vaccinate HLA-A2b mice. DCs alone (no peptide) were also used as a control vaccine. After three vaccinations at 2-week intervals, T cells were isolated from splenocytes obtained 2 weeks after the last vaccination. The T cells were then incubated with Jurkat A2/K^b cells pulsed with the PSA-3 peptide, the PSA-3A peptide, or no peptide, and production of INF-γ was measured from supernatants after 24 h.

Where “and” joins values, the source holds several entries; their conditions need not be identical. Equal entries are not always repeated.

Turning to VISNDVCAQL (SEQ ID NO:2) [1–163], in assay [1], the “Binding to HLA-A2 (relative fluorescence, MFI)” value is reported as “no binding”.

With YISNDVCAQV (SEQ ID NO:4) [Y154], in assay [1], the “Binding to HLA-A2 (relative fluorescence, MFI)” value is listed as “higher levels than PSA-3”.

Take “VISNDVCAQV (SEQ ID NO:1) [PSA-3, reference compound]”: the “PRODUCTION OF IFN-γ” value was 280 pg/mL in assay [2] (APC DCs, T-PSA-3A T cells present, effector-to-APC 10:1, 24 h, IVS-3); below 15 pg/mL in assay [2] (APC DCs, no T cell, 24 h); below 15 pg/mL in assay [2] (no APC, T-PSA-3A T cells present, 24 h). For the same sequence, the “IL-12 PRODUCTION” value in assay [3] (APC DC, T cell line T-PSA-3, peptide 25 μg/ml, 10:1, 24 h, IVS-4) is reported as 5.0 pg/ml/5 × 10^5 DC; in assay [3] (APC DC, T cell line T-PSA-3A, peptide 25 μg/ml, 10:1, 24 h, IVS-4) it was 10.5 pg/ml/5 × 10^5 DC; in assay [3] (no APC, T cell line T-PSA-3, peptide 25 μg/ml, 24 h) it was below 0.6 pg/ml/5 × 10^5 DC; in assay [3] (no APC, T cell line T-PSA-3A, peptide 25 μg/ml, 24 h), below 0.6 pg/ml/5 × 10^5 DC. Besides, the “Production of IL-4” value in assay [4] is “Low or undetectable levels”. Further, in assay [4], the “Production of IL-10” value is recorded as “Low or undetectable levels”. Besides, in assay [4], the “Production of TNF-α” value is reported as “No TNF-α could be detected”. For the same sequence, the “Apoptotic CD8+ cells” value in assay [5] was 4.9% and 4.5%. The “Production of IFN-γ” value in assay [6] (label = peptide pulsed on immunizing DCs, Jurkat A2/K^b cells pulsed with PSA-3A (25 μg/ml)) is on record as 1,969.0 pg/ml/10^6 cells; in assay [6] (label = peptide pulsed on immunizing DCs, Jurkat A2/K^b cells with no peptide) it was below 37.0 pg/ml/10^6 cells; in assay [6] (label = peptide pulsed on immunizing DCs, T cells restimulated with Jurkat A2/K^b cells pulsed with PSA-3 (25 μg/ml)) it was 1,908.0 pg/ml/10^6 cells; in assay [6] (mice immunized with DCs (no peptide), label = peptide pulsed on Jurkat A2/K^b cells), below 37.0 pg/ml/10^6 cells.
